Laboratory results published in ChEMBL document CHEMBL1201862, “PubChem BioAssay data set” (2004).
Activity calls are given as the source filed them.

Experiments:
[1] = molecular target: T1, Nuclear receptor subfamily 0 group B member 1 (Homo sapiens, UniProt P51843); type: functional, cell-based;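 also: HEK293T cells transfected with SF-1 and DAX-1 plus StAR promoter luciferase reporter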
T1 sequence (P51843 whole entry): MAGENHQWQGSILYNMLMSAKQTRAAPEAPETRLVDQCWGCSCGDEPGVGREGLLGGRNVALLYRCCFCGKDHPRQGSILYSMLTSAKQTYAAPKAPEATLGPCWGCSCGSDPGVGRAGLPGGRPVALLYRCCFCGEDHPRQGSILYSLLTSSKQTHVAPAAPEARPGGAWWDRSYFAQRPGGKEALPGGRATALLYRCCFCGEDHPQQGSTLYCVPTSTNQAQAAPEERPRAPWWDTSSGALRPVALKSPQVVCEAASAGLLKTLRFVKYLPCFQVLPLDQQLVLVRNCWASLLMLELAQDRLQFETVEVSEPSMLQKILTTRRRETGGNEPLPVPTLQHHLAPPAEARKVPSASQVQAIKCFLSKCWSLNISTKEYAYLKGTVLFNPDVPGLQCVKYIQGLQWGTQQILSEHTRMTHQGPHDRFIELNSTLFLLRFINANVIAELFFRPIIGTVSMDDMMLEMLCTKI

[2] = cells; type: functional, cell-based
[3] = inhibitors of HIV Env-driven cell fusion, dose response, cherry-pick (AID 652057); type: functional, cell-based
[4] = off-target signal loss in HeLa-CEM21 co-culture – HeLa F-luc CTL cells, cherry-picked, counter-screen for HIV-1 Env fusion inhibitor project, dose response (AID 652040); type: functional, cell-based;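 also: potency for signal decrease marking cytotoxic or nonspecific inhibition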
[5] = ZM109 Env clade C HIV-1 fusion inhibitors, dose response, HeLa effector, CEM target cells, luciferase, cherry-pick (AID 652058); type: functional, cell-based
[6] = CEM21 lymphoblast cell cytotoxicity, dose response, cytotoxicity control for viral fusion inhibitor project, CellTiter-Glo luminescence, cherry-picked (AID 652042); type: functional, cell-based;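 also: potency for signal decrease meaning cytotoxicity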
[7] = molecular target: T2, Hepatocyte nuclear factor 4-alpha (Homo sapiens, UniProt P41235); type: functional, cell-based;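 also: biochemical luminescence-based dose-response counterscreen measuring inhibition of HNF4 dimerization, run alongside a screen for blockers of ABHD5–perilipin-5 interaction; split luciferase complementation of HNF4 fusion proteins in cell lysate measuring dimerization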
T2 sequence (P41235 whole entry): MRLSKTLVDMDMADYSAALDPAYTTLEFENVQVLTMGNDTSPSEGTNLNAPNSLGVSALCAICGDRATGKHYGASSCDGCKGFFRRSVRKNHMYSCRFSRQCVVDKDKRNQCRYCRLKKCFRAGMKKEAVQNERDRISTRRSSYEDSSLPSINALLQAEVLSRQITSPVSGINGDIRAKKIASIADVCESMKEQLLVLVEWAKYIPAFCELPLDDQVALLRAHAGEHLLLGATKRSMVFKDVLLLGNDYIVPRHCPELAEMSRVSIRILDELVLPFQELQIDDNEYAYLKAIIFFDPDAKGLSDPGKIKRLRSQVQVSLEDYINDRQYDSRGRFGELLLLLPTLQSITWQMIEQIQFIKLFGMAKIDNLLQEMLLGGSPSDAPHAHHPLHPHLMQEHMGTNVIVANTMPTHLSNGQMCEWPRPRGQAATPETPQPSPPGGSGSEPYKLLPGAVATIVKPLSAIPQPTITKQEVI

[8] = molecular target: T3, Long-chain-fatty-acid--AMP ligase FadD28 (Mycobacterium tuberculosis, UniProt P9WQ59); assay: Fluorescence polarization aasay to screen for inhibitors that compete for the binding of FadD28 to a bisubstrate Measured in Biochemical System Using Plate Reader - 2147-01_Inhibitor_Dose_CherryPick_Activity.; type: functional, Mycobacterium tuberculosis H37Rv
T3 sequence (P9WQ59 whole entry): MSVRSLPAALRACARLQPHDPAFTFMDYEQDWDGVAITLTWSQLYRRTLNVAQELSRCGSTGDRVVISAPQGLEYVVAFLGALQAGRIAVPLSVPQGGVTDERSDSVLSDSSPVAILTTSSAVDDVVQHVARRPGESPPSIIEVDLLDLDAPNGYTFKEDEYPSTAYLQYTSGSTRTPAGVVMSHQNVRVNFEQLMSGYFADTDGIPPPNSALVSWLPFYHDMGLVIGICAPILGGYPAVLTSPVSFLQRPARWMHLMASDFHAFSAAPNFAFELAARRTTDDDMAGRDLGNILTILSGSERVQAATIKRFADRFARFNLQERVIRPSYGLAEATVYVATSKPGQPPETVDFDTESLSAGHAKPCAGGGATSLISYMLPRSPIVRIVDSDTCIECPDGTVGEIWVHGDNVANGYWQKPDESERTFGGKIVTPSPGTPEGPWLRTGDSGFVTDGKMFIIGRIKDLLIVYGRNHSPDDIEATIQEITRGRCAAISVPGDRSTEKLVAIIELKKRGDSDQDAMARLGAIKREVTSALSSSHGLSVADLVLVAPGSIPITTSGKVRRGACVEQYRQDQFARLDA

[9] = molecular target: Albumin (Bos taurus, UniProt P02769); assay: Counterscreen for inhibitors of T-cell receptor (TCR)-CD3 interaction: Fluorescence-based biochemical high throughput dose response assay to identify inhibitors of T-cell receptor (TCR)-CD3 interaction using a TAMRA-labeled BSA probe.; type: functional
Sequence of Albumin (P02769 whole entry): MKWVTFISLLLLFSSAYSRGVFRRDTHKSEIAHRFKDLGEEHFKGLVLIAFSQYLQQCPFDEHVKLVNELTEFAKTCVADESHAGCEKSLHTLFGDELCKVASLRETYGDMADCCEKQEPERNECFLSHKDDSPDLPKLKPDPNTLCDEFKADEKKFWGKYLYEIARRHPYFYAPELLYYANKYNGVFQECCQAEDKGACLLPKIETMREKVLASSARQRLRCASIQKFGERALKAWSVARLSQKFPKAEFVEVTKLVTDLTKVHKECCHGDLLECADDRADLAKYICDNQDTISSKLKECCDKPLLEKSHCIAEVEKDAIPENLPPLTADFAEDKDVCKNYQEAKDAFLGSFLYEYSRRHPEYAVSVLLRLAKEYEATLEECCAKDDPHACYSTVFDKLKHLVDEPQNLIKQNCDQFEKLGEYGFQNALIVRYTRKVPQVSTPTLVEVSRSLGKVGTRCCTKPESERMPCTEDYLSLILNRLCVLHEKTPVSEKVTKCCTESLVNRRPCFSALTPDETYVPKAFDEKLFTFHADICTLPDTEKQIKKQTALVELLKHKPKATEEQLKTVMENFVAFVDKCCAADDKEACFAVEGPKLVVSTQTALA

[10] = C. albicans growth with fluconazole, confirmation, fluorescence, retest (AID 2467); type: functional, cell-based
[11] = NIH-3T3 fibroblast cytotoxicity, dose response, cytotoxicity control, cell-based, fluorescence, Alamar Blue, secondary assay (AID 2327); type: functional;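 also: NIH-3T3 mouse fibroblasts cultured with fluconazole at 8 µg/mL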
[12] = molecular target: T4, Sentrin-specific protease 8 (Homo sapiens, UniProt Q96LD8); type: functional
T4 sequence (Q96LD8 whole entry): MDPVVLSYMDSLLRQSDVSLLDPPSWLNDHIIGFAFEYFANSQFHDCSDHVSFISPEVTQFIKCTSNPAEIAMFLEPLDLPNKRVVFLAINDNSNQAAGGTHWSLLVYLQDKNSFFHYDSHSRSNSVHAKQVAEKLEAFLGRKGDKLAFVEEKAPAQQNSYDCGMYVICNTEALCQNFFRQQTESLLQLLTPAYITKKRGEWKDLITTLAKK

[13] = molecular target: T4, Sentrin-specific protease 8; type: functional; remark: listed apart in the source
[14] = HeLa cell cytotoxicity, dose response, cytotoxicity control for MgcRacGAP inhibitor project (AID 624300); type: functional
[15] = molecular target: T5, Protein skinhead-1 (Caenorhabditis elegans, UniProt P34707); type: functional
T5 sequence (P34707 whole entry): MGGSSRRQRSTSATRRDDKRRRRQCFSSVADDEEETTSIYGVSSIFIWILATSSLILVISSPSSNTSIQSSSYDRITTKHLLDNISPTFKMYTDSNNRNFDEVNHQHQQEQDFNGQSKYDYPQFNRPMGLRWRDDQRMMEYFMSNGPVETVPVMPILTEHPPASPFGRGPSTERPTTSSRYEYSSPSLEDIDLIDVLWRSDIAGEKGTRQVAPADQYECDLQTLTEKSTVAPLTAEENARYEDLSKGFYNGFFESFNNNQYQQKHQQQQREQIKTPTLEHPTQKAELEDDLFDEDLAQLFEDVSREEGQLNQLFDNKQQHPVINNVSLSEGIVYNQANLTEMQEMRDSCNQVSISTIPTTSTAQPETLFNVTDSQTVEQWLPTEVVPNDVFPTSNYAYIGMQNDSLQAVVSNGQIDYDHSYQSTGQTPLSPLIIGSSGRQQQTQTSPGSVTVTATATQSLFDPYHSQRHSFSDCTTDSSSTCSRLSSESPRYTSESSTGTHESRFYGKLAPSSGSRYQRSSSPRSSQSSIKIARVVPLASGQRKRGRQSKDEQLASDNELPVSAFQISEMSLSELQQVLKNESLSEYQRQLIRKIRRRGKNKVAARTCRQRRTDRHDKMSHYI

[16] = inhibitors of clade B AD8 Env fusion, dose response, cell-based, cherry-pick (AID 652062); type: functional;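 also: luciferase signal from cell-cell fusion driven by HIV-1 clade B AD8 Env; potency is for inhibitors of fusion seen as a drop in luminescence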
[17] = molecular target: T6, Rac GTPase-activating protein 1 (Homo sapiens, UniProt Q9H0H5); assay: MgcRacGAP GTPase-activating activity inhibitors, confirmation, biochemical, ADP Hunter fluorescence, primary and confirmatory (AID 624330); type: functional
T6 sequence (Q9H0H5 whole entry): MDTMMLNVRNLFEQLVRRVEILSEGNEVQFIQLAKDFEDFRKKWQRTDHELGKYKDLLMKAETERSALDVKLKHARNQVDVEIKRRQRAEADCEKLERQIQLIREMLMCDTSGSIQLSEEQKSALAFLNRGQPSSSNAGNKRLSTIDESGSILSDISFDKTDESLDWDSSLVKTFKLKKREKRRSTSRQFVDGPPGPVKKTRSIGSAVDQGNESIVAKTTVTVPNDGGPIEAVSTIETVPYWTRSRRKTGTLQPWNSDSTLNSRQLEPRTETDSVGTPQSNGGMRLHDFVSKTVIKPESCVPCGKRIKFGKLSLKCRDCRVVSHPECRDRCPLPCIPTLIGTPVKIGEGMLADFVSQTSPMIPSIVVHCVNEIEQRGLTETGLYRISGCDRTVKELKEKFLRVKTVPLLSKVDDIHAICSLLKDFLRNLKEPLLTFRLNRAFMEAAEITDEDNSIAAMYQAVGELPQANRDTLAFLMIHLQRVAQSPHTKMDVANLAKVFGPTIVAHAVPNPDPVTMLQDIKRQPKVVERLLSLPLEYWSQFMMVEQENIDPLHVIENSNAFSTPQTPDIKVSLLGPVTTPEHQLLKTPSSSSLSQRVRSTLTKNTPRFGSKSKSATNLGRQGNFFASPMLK

[18] = miR-122 activators in hepatoma reporter cells, dose response, cell-based, Huh7 psiCHECK-miR122, Renilla luciferase, cherry-picked (AID 651956); type: functional;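 also: huh7 hepatoma cells stably carrying a psiCHECK-2 miR-122 sensor plasmid; renilla luciferase signal reporting endogenous miR-122 activity after 48 h compound exposure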
[19] = HEK293T cytotoxicity, dose response, cytotoxicity control for miR-122 modulator project, cell-based, activator set, cherry-pick (AID 720690); type: functional;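 also: HEK293T human cells scored for general mammalian cytotoxicity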
[20] = HepG2 cell cytotoxicity, dose response, cytotoxicity control, cherry-picked samples (AID 1159577); type: functional, cell-based
[21] = HEK293T cytotoxicity, dose response, cytotoxicity control for miR-122 modulator project, cell-based, inhibitor set, cherry-pick, set 2 (AID 720697); type: functional
[22] = P. falciparum Dd2 growth inhibitors, dose response, SYBR Green, cherry-picked samples (AID 1159567); type: functional, cell-based
[23] = molecular target: DNA (cytosine-5)-methyltransferase 1 (Homo sapiens, UniProt P26358); assay: DNMT1 methyltransferase inhibitors, confirmation, biochemical, fluorescent molecular beacon (AID 602386); type: functional
Sequence of DNA (cytosine-5)-methyltransferase 1 (P26358 whole entry): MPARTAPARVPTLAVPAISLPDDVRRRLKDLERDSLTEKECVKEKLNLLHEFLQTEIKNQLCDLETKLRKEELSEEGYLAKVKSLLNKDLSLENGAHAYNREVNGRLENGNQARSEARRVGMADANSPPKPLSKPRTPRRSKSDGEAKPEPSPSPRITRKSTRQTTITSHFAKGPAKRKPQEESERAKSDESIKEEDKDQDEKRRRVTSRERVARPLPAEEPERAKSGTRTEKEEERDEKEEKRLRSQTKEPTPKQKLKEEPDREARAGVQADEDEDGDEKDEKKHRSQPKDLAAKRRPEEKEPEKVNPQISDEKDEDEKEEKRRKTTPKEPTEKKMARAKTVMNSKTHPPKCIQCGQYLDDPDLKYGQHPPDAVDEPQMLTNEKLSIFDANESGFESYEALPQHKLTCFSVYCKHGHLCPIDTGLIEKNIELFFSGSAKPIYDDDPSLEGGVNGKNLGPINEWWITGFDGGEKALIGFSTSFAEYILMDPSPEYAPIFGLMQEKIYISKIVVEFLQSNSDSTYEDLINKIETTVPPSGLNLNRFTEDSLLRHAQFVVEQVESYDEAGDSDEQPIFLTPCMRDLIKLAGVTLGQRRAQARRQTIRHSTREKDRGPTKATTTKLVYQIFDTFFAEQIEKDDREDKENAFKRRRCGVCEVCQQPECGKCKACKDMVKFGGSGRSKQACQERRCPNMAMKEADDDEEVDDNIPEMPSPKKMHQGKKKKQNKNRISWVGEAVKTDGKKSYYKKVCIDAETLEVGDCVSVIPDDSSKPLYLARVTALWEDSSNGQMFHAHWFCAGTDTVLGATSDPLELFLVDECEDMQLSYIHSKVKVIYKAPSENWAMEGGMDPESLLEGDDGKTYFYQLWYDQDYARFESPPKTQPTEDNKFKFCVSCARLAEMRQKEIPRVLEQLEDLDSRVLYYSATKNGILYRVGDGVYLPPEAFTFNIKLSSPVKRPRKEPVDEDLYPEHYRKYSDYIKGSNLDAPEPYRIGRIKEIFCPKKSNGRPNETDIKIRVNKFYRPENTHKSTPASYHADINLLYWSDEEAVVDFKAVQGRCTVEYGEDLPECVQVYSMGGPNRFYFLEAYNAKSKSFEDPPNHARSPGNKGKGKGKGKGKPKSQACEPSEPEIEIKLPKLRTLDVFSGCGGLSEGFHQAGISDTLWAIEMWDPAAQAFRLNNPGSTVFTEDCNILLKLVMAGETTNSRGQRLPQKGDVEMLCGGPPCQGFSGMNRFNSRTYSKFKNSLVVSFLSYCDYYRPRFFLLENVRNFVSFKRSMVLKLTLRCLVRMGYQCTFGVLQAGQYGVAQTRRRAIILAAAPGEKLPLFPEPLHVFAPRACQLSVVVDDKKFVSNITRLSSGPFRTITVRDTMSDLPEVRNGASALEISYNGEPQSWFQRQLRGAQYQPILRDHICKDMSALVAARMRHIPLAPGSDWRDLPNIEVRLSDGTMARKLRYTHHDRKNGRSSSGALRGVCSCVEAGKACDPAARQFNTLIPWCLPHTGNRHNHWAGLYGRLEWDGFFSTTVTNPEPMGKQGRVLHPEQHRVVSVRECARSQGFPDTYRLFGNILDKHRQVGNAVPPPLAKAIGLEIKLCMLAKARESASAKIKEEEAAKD

[24] = molecular target: SWI/SNF-related matrix-associated actin-dependent regulator of chromatin subfamily A member 2 (Homo sapiens, UniProt P51531); assay: Luminescence-based cell-based high throughput dose response assay to identify activators of the function of SWI/SNF related, matrix associated, actin dependent regulator of chromatin, subfamily a, member 2 (SMARCA2, BRM).; type: functional
Sequence of SWI/SNF-related matrix-associated actin-dependent regulator of chromatin subfamily A member 2 (P51531 whole entry): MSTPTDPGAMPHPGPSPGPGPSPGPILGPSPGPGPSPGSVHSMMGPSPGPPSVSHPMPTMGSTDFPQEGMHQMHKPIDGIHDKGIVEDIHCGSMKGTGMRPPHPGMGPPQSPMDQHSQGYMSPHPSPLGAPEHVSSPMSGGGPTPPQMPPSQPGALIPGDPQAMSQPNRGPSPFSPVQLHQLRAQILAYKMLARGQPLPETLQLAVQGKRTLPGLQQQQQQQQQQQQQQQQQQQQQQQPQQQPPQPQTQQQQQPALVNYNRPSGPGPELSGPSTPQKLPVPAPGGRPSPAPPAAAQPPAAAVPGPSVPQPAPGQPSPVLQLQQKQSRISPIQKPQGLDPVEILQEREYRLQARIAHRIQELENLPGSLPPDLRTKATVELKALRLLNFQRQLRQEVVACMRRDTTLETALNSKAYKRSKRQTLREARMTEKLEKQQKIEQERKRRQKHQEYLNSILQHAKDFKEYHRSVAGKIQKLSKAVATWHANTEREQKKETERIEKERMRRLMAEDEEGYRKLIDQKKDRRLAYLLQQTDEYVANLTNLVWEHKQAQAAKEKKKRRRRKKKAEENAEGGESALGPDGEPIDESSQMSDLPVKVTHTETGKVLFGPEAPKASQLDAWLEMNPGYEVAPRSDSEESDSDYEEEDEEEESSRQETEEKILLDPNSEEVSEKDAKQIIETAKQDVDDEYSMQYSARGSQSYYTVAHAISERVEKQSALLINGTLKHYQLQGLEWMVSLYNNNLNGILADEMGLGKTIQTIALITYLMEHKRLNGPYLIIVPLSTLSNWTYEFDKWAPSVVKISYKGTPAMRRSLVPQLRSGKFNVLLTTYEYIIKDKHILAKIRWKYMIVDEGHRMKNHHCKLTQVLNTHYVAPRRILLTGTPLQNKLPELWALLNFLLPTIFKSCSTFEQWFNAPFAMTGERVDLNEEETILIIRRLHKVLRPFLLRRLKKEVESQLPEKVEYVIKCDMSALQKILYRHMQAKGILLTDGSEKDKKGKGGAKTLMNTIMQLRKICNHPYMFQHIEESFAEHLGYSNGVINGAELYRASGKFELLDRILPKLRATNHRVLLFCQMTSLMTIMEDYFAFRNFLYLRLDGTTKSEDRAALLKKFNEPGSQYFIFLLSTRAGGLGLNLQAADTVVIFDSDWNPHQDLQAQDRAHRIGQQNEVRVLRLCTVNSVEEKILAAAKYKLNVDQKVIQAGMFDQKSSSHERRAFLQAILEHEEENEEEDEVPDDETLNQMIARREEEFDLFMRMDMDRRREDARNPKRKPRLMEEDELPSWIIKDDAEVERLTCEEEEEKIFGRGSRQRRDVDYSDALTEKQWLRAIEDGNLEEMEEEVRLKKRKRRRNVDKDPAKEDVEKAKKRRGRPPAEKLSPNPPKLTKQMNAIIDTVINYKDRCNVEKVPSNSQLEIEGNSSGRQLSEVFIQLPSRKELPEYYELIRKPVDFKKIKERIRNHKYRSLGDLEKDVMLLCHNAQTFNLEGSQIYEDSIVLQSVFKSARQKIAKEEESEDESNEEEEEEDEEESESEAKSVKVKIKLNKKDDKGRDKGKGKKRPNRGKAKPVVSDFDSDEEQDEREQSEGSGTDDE

[25] = Counterscreen for activators of the function of SWI/SNF related, matrix associated, actin dependent regulator of chromatin, subfamily a, member 2 (SMARCA2, BRM): Luminescence-based cell-based high throughput dose response assay to identify non-selective compounds using the VP16 reporter assay.; type: functional

COc1ccc(C(=O)NCCS(=O)(=O)NCCc2ccccc2)cc1
IC50 [1]: > 67.5 µM (inactive)
IC50 [2]: > 67.5 µM (inactive)

Cc1ccc2c(C)nc(Nc3nc(O)cc(CSc4nnnn4-c4ccccc4)n3)nc2c1
AC50 [3]: 20.5 µM (active)
AC50 [4]: 25.3 µM (active)
AC50 [5]: 12.5 µM (active)
AC50 [6]: 25.2 µM (active)

Cc1cccc(C)c1OCc1cn(CC(=O)c2ccc(O)cc2)nn1
IC50 [7]: 4.78 µM (active)

O=C(CN1C(=O)S/C(=C\c2cccs2)C1=O)Nc1ccc(O)cc1C(=O)O
AC50 [8]: 94.3 µM (active)

Cc1ccc(S(=O)(=O)N2[C@@H](c3cccc(Cl)c3)C(C(=O)O)=CC[C@H]2c2cccc(C)c2)cc1
AC50 [8]: 48.3 µM (active)

COc1cccc(C(=O)NNC(=O)c2ccc3ccccc3c2O)c1
IC50 [9]: > 94.1 µM (inactive)
EC50 [10]: > 38 µM (not active)
EC50 [11]: > 150 µM (inconclusive)

O=C(O)/C=C/C(=O)Nc1ccc(O)cc1
IC50 [12]: 16.2 µM (active)
IC50 [13]: 10.6 µM (active)

CC1CCCCN1Cc1c(O)ccc2c(O)c(-c3nc4ccccc4s3)c(=N)oc12 (stereo not drawn)
CC50 [14]: 93.1 µM (active)
IC50 [15]: 4.74 µM (active)

C[C@H](CO)N1C[C@H](C)[C@H](CN(C)S(=O)(=O)c2ccccc2)Oc2ccc(NC(=O)NC3CCCCC3)cc2CC1=O
AC50 [3]: 1.59 µM (active)
AC50 [4]: 2.01 µM (active)
AC50 [5]: 0.98 µM (active)
AC50 [16]: 4.13 µM (active)
AC50 [6]: 46.9 µM (active)

O=C(NNC(=S)NC(=O)c1cccnc1)c1ccc(F)cc1
IC50 [9]: > 94.1 µM (inactive)

CCCCCNC(=O)C(c1ccc(OC)cc1)n1c(=O)c(-c2ccco2)nc2ccccc21 (stereo not drawn)
IC50 [7]: 3.07 µM (active)

c1ccc(Nc2cc(Nc3ccccc3)[nH]n2)cc1
CC50 [14]: 100 µM (active)
IC50 [17]: 50.9 µM (active)

Cc1cccc(-c2ccc([C@@H]3[C@H](CO)N4CCCCN(CCC(F)(F)F)C[C@@H]34)cc2)c1
AC50 [18]: 14.9 µM (active)
AC50 [19]: 17.7 µM (active)
AC50 [20]: 10.7 µM (active)
AC50 [21]: 28.8 µM (active)
AC50 [22]: 0.978 µM (active)

COc1cc2cc(Oc3ccc4ccc(=O)oc4c3)c(=O)oc2cc1O[C@@H]1O[C@H](CO)[C@@H](O)[C@H](O)[C@H]1O [DAPHNORIN]
AC50 [8]: 87.2 µM (active)
IC50 [23]: 7.56 µM (active)

CCOC(=O)NC1CCc2cc(OC)c(OC)c(OC)c2-c2ccc(SC)c(=O)cc21 (stereo not drawn)
IC50 [1]: > 0.0309 µM (active)
IC50 [2]: > 67.5 µM (inactive)

COc1ccccc1NS(=O)(=O)c1cc(NC(=O)/C=C/c2cccs2)ccc1N1CCOCC1
EC50 [24]: > 91.2 µM (inactive)
EC50 [25]: > 91.2 µM (inactive)

C[C@H]1CN([C@@H](C)CO)C(=O)c2cc(NC(=O)Nc3ccc(C(F)(F)F)cc3)ccc2O[C@H]1CN(C)CC1CCCCC1
AC50 [18]: 8.8 µM (active)
AC50 [19]: 18.7 µM (active)
